Data taken from patent US9867376B2, “Herbicidal compositions comprising N-tetrazol-5-yl)- or N-(triazol-5-yl)arylcarboxamides” (priority 2012, dated 2018).

Legend:
Format in all cases: in vivo
Abutilon theophrasti = experiment: Field trial, post-emergence, visual scoring; details: Table 5-17, field, alone
Method: (§1) The tests were conducted outdoors (plot trials, 10 m^2 per plot, 2 repetitions, spray application with 200-300 liters of water per hectare). Crops and broad-leaved weeds/weed grasses were sown under customary field conditions. In addition, a natural weed flora also appeared. Application was by the post-emergence method. The application rates of the herbicidally active compounds applied on their own or in combinations are likewise shown in the tables below. Evaluations were by visual scoring (using a 0-100% scale) after application by comparison of treated and untreated test variants.
(§2) The abbreviations denote: • a.i.=active ingredient • E^C=expected value according to Colby (E^C=A+B−A×B100) • Δ=difference (%) of the measured value to the expected value (%) (measured value minus expected value)
(§3) Evaluation: • measured value E is greater than E^C:→synergism (+Δ) • measured value E equals E^C:→additive effect • measured value E is smaller than E^C:→antagonism (−Δ)

[1] = system: broad-leaved weeds/weed grasses; experiment: Field trial, post-emergence, visual scoring (species not listed above); details: dosage 210 g of a.i./ha
Method: as §1, §2, §3

Polygunum convolvulus = experiment: Field trial, post-emergence, visual scoring; details: Table 5-53, field, alone, 210 g of a.i./ha
Method: as §1, §2, §3

Cassia obtusifolia = experiment: Field trial, post-emergence, visual scoring; details: alone
Method: as §1, §2, §3

Galium aparine = experiment: Field trial, post-emergence, visual scoring; details: alone
Method: as §1, §2, §3

Veronica hederifolia [2] = experiment: Field trial, post-emergence, visual scoring; details: alone, 210 g of a.i./ha
Method: as §1, §2, §3

Brachiaria platyphylla = experiment: Greenhouse trial, post-emergence, visual herbicidal effect; details: alone
Method: (§4) The weed seeds were sown in pots (diameter 8 cm) with sandy loam soil and germinated under optimum conditions. The herbides were applied by the post-emergence method onto the pots with the cultures, at a spray volume of 300 I/ha. The herbicides were applied on their own and in combination. The trial was conducted in a greenhouse under optimum growth conditions. The herbicidal effects were assessed visually by comparison of untreated and treated plants. The percentages mean: 0%=no effects, 100%=the plants die off completely). The percentages are used to calculate interactions between individual treatments and combination treatment according to S. R. Colby, Weeds 15, pages 20 to 22 (1967).
as §2, §3

Xanthium strumarium = experiment: as above; details: Table 5-56, greenhouse, alone, 1 g of a.i./ha
Method: as §4, §2, §3

Lolium multiflorum = experiment: Field trial, post-emergence, visual scoring; details: Table 5-58, field, alone, 25 g of a.i./ha
Method: as §1, §2, §3

Euphorbia heterophylla = experiment: Field trial, post-emergence, visual scoring; details: Table 5-63, field, alone, 25 g of a.i./ha
Method: as §1, §2, §3

Centaurea cyanis = experiment: Field trial, post-emergence, visual scoring; details: Table 5-59, field, alone, 25 g of a.i./ha
Method: as §1, §2, §3

Alopecurus myosuroides = experiment: Field trial, post-emergence, visual scoring; details: Table 5-60, field, alone, 25 g of a.i./ha
Method: as §1, §2, §3

Polygonum convolvulus = experiment: Greenhouse trial, post-emergence, visual herbicidal effect; details: Table 5-88, greenhouse, alone, 3 g of a.i./ha
Method: as §4, §2, §3

Papaver rhoeas = experiment: as above; details: alone, 3 g of a.i./ha
Method: as §4, §2, §3

Veronica hederifolia [3] = experiment: as above; details: Table 5-89, greenhouse, alone, 3 g of a.i./ha
Method: as §4, §2, §3

Bidens pilosa = experiment: as above; details: alone
Method: as §4, §2, §3

Amaranthus retroflexus = experiment: Field trial, post-emergence, visual scoring; details: Table 5-48, field, alone, 50 g of a.i./ha
Method: as §1, §2, §3

Sida spinosa = experiment: Field trial, post-emergence, visual scoring; details: alone, 10 g of a.i./ha
Method: as §1, §2, §3

Portulaca oleracea = experiment: Field trial, post-emergence, visual scoring; details: alone
Method: as §1, §2, §3

Setaria viridis = experiment: Field trial, post-emergence, visual scoring; details: alone
Method: as §1, §2, §3

In the case of COC[C@H](C)N(C(=O)CCl)c1c(C)csc1C [dimethenamide-P], the “Activity [%] against Abutilon theophrasti” value (Abutilon theophrasti; 500 g of a.i./ha) is reported as 25%.

For N#Cc1cc(Br)c(O)c(Br)c1 [bromoxynil], the “Activity [%] against Stellaria media” value ([1]; Table 5-114) was 10%, the “Activity [%] against Stellaria media” value ([1]; Table 5-116) was 5% and the “Activity [%] against Polygunum convolvulus” value (Polygunum convolvulus) was 30%. The “Activity [%] against Cassia obtusifolia” value (Cassia obtusifolia; Table 5-25, field, 210 g of a.i./ha) was 10%, the “Activity [%] against Galium aparine” value (Galium aparine; Table 5-04, field, 210 g of a.i./ha) was 13% and the “Activity [%] against Galium aparine” value (Galium aparine; Table 5-62, field, 210 g of a.i./ha) was 13%. For the same molecule, the “Activity [%] against Galium aparine” value (Galium aparine; Table 5-92, field, 210 g of a.i./ha) was 25%, the “Activity [%] against Veronica hederifolia” value (Veronica hederifolia [2]; Table 5-66, field) was 5% and the “Activity [%] against Veronica hederifolia” value (Veronica hederifolia [2]; Table 5-74, field) was 5%. For the same molecule, the “Activity [%] against Veronica hederifolia” value (Veronica hederifolia [2]; Table 5-76, field) was 0% and the “Activity [%] against Veronica hederifolia” value (Veronica hederifolia [2]; Table 5-79, field) was 5%.

With COCc1c(S(C)(=O)=O)ccc(C(=O)Nc2nnnn2C)c1Cl [A1-60] the “Activity [%] against Brachiaria platyphylla” value (Brachiaria platyphylla; Table 5-55, greenhouse, 1 g of a.i./ha) was 0%, the “Activity [%] against Brachiaria platyphylla” value (Brachiaria platyphylla; Table 5-57, greenhouse, 2 g of a.i./ha) was 40% and the “Activity [%] against Xanthium strumarium” value (Xanthium strumarium) was 25%. For the same molecule, the “Activity [%] against Lolium multiflorum” value (Lolium multiflorum) was 15%, the “Activity [%] against Euphorbia heterophylla” value (Euphorbia heterophylla) was 30% and the “Activity [%] against Centaurea cyanis” value (Centaurea cyanis) was 45%. For the same molecule, the “Activity [%] against Alopecurus myosuroides” value (Alopecurus myosuroides) was 15%, the “Activity [%] against Galium aparine” value (Galium aparine; Table 5-61, field, 25 g of a.i./ha) was 30% and the “Activity [%] against Galium aparine” value (Galium aparine; Table 5-62, field, 25 g of a.i./ha) was 73%.

Cn1nnnc1NC(=O)c1ccc(S(C)(=O)=O)c(OCC2CC2)c1Cl [A1-74] was tested, and the “Activity [%] against Polygonum convolvulus” value (Polygonum convolvulus) was 0%, the “Activity [%] against Papaver rhoeas” value (Papaver rhoeas; Table 5-86, greenhouse) was 30% and the “Activity [%] against Papaver rhoeas” value (Papaver rhoeas; Table 5-87, greenhouse) was 40%. For the same molecule, the “Activity [%] against Veronica hederifolia” value (Veronica hederifolia [3]) was 40%.

With CCc1c(C(=O)Nc2nnnn2C)ccc(Cl)c1SC [A1-36] the “Activity [%] against Brachiaria platyphylla” value (Brachiaria platyphylla; Table 5-45, greenhouse, 2 g of a.i./ha) was 25%, the “Activity [%] against Bidens pilosa” value (Bidens pilosa; Table 5-46, greenhouse, 2 g of a.i./ha) was 45% and the “Activity [%] against Bidens pilosa” value (Bidens pilosa; Table 5-47, greenhouse, 4 g of a.i./ha) was 30%. For the same molecule, the “Activity [%] against Amaranthus retroflexus” value (Amaranthus retroflexus) was 0%.

For CCCn1nnnc1NC(=O)c1ccc(C(F)(F)F)c(S(C)(=O)=O)c1C [A1-9], the “Activity [%] against Sida spinosa” value (Sida spinosa; Table 5-10, field) was 60%, the “Activity [%] against Sida spinosa” value (Sida spinosa; Table 5-11, field) was 60% and the “Activity [%] against Sida spinosa” value (Sida spinosa; Table 5-21, field) was 60%. The “Activity [%] against Portulaca oleracea” value (Portulaca oleracea; Table 5-13, field, 20 g of a.i./ha) was 43%, the “Activity [%] against Portulaca oleracea” value (Portulaca oleracea; Table 5-14, field, 20 g of a.i./ha) was 43% and the “Activity [%] against Portulaca oleracea” value (Portulaca oleracea; Table 5-15, field, 20 g of a.i./ha) was 43%. The “Activity [%] against Portulaca oleracea” value (Portulaca oleracea; Table 5-16, field, 20 g of a.i./ha) was 43%, the “Activity [%] against Portulaca oleracea” value (Portulaca oleracea; Table 5-18, field, 20 g of a.i./ha) was 43% and the “Activity [%] against Portulaca oleracea” value (Portulaca oleracea; Table 5-19, field, 20 g of a.i./ha) was 43%. For the same molecule, the “Activity [%] against Portulaca oleracea” value (Portulaca oleracea; Table 5-20, field, 20 g of a.i./ha) was 43%, the “Activity [%] against Portulaca oleracea” value (Portulaca oleracea; Table 5-22, field, 10 g of a.i./ha) was 38% and the “Activity [%] against Setaria viridis” value (Setaria viridis; Table 5-23, field, 10 g of a.i./ha) was 15%. The “Activity [%] against Setaria viridis” value (Setaria viridis; Table 5-26, field, 25 g of a.i./ha) was 7%, the “Activity [%] against Cassia obtusifolia” value (Cassia obtusifolia; Table 5-12, field, 20 g of a.i./ha) was 0% and the “Activity [%] against Cassia obtusifolia” value (Cassia obtusifolia; Table 5-24, field, 20 g of a.i./ha) was 0%. For the same molecule, the “Activity [%] against Cassia obtusifolia” value (Cassia obtusifolia; Table 5-25, field, 25 g of a.i./ha) was 65% and the “Activity [%] against Abutilon theophrasti” value (Abutilon theophrasti; 20 g of a.i./ha) was 78%.
